Patent publication US9521850B2 (University of Florida Research Foundation, Incorporated, priority 2012, dated 2016)
pIC50: −log10 of the molar value. In brackets after ≈: the same amount, converted by molar mass.

What was measured:
Liberibacter crescens = experiment: microbe, parasite or virus in culture; type: cell-based
Rhizobium etli = experiment: microbe, parasite or virus in culture; type: cell-based
Bradyrhizobium japonicum = experiment: microbe, parasite or virus in culture; type: cell-based
Xanthomonas citri = experiment: microbe, parasite or virus in culture; type: cell-based, Xanthomonas citri subsp. citri
Mesorhizobium loti = experiment: microbe, parasite or virus in culture; type: cell-based
Sinorhizobium meliloti = experiment: microbe, parasite or virus in culture; type: cell-based
[1] = test system: Agrobacterium tumefaciens; experiment: microbe, parasite or virus in culture; type: cell-based
SecA of Ca. L. asiaticus = SecA of Ca. L. asiaticus (Candidatus Liberibacter asiaticus, UniProt A0ABM5NFG5); experiment: biochemical
A. tumefaciens = experiment: microbe, parasite or virus in culture; type: cell-based; conditions: Agrobacterium tumefaciens, 24 h
CLAS populations = experiment: Effect on CLAS populations, mean Ct by quantitative PCR (Example 2)

O=C1CCCC2=C1[C@H](c1ccccc1)Nc1ccc(C(=O)c3ccccc3)cc1N2 [SA4, (11S)-7-Benzoyl-11-phenyl-2,3,4,5,10,11-hexahydro-1H-dibenzo[b,e] [1,4]diazepin-1-one]
MBC (Liberibacter crescens; 24 h): 32 µg/mL (≈ 81.1 µM)
MIC (Liberibacter crescens; 24 h): 16 µg/mL (≈ 40.6 µM)
MBC (Liberibacter crescens; 120 h): 64 µg/mL (≈ 162 µM)
MIC (Liberibacter crescens; 120 h): 32 µg/mL (≈ 81.1 µM)
MBC (Rhizobium etli; 24 hrs): 16 µg/mL (≈ 40.6 µM)
MIC (Rhizobium etli; 24 hrs): 8 µg/mL (≈ 20.3 µM)
MBC (Rhizobium etli; 120 hrs): 32 µg/mL (≈ 81.1 µM)
MIC (Rhizobium etli; 120 hrs): 16 µg/mL (≈ 40.6 µM)
MBC (Bradyrhizobium japonicum; 24 hrs): 16 µg/mL (≈ 40.6 µM)
MIC (Bradyrhizobium japonicum; 24 hrs): 8 µg/mL (≈ 20.3 µM)
MBC (Bradyrhizobium japonicum; 120 hrs): 16 µg/mL (≈ 40.6 µM)
MIC (Bradyrhizobium japonicum; 120 hrs): 16 µg/mL (≈ 40.6 µM)
MBC (Xanthomonas citri): 64 µg/mL (≈ 162 µM)
MIC (Xanthomonas citri): 32 µg/mL (≈ 81.1 µM)
MBC (Mesorhizobium loti): 32 µg/mL (≈ 81.1 µM)
MIC (Mesorhizobium loti): 16 µg/mL (≈ 40.6 µM)
MBC (Sinorhizobium meliloti): 64 µg/mL (≈ 162 µM)
MIC (Sinorhizobium meliloti): 32 µg/mL (≈ 81.1 µM)
MBC [1]: 64 µg/mL (≈ 162 µM)
MIC [1]: 16 µg/mL (≈ 40.6 µM)

Cc1cc([C@H]2Nc3ccc(C(=O)c4ccccc4)cc3NC3=C2C(=O)CC(C)(C)C3)cc(C)c1O [SA9, 11-(4-hydroxy-3,5-dimethyl-phenyl)-3,3-dimethyl-7-(phenyl-carbonyl)-2,3,4,5,10,11-hexahydro-1H-dibenzo[b,e] [1,4]diazepin-1-one]
MBC (Liberibacter crescens; 24 h): 16 µg/mL (≈ 34.3 µM)
MIC (Liberibacter crescens; 24 h): 16 µg/mL (≈ 34.3 µM)
MBC (Liberibacter crescens; 120 h): 64 µg/mL (≈ 137 µM)
MIC (Liberibacter crescens; 120 h): 32 µg/mL (≈ 68.6 µM)
MBC (Rhizobium etli; 24 hrs): 16 µg/mL (≈ 34.3 µM)
MIC (Rhizobium etli; 24 hrs): 8 µg/mL (≈ 17.1 µM)
MBC (Rhizobium etli; 120 hrs): 32 µg/mL (≈ 68.6 µM)
MIC (Rhizobium etli; 120 hrs): 16 µg/mL (≈ 34.3 µM)
MBC (Bradyrhizobium japonicum; 24 hrs): 32 µg/mL (≈ 68.6 µM)
MIC (Bradyrhizobium japonicum; 24 hrs): 16 µg/mL (≈ 34.3 µM)
MBC (Bradyrhizobium japonicum; 120 hrs): 64 µg/mL (≈ 137 µM)
MIC (Bradyrhizobium japonicum; 120 hrs): 32 µg/mL (≈ 68.6 µM)
MBC (Xanthomonas citri): 64 µg/mL (≈ 137 µM)
MIC (Xanthomonas citri): 32 µg/mL (≈ 68.6 µM)
MBC (Mesorhizobium loti): 32 µg/mL (≈ 68.6 µM)
MIC (Mesorhizobium loti): 16 µg/mL (≈ 34.3 µM)
MBC (Sinorhizobium meliloti): 32 µg/mL (≈ 68.6 µM)
MIC (Sinorhizobium meliloti): 16 µg/mL (≈ 34.3 µM)
MBC [1]: 64 µg/mL (≈ 137 µM)
MIC [1]: 32 µg/mL (≈ 68.6 µM)

COc1cc(-c2cc(-c3ccccc3)nc3sc(C(=O)O)c(N)c23)cc(OC)c1OC [Compound C17, 3-amino-6-phenyl-4-(3,4,5-trimethoxy-phenyl)thieno [2,3-b]pyridine-2-carboxylic acid]
pIC50 (SecA of Ca. L. asiaticus): 6.04
MBC (A. tumefaciens): 256 µg/mL (≈ 586 µM)
MBC (Liberibacter crescens; 24 h): 16 µg/mL (≈ 36.7 µM)
MIC (Liberibacter crescens; 24 h): 16 µg/mL (≈ 36.7 µM)
MBC (Liberibacter crescens; 120 h): 32 µg/mL (≈ 73.3 µM)
MIC (Liberibacter crescens; 120 h): 32 µg/mL (≈ 73.3 µM)
MBC (Rhizobium etli; 24 hrs): 64 µg/mL (≈ 147 µM)
MIC (Rhizobium etli; 24 hrs): 32 µg/mL (≈ 73.3 µM)
MBC (Rhizobium etli; 120 hrs): 64 µg/mL (≈ 147 µM)
MIC (Rhizobium etli; 120 hrs): 32 µg/mL (≈ 73.3 µM)
MBC (Bradyrhizobium japonicum; 24 hrs): 32 µg/mL (≈ 73.3 µM)
MIC (Bradyrhizobium japonicum; 24 hrs): 16 µg/mL (≈ 36.7 µM)
MBC (Bradyrhizobium japonicum; 120 hrs): 64 µg/mL (≈ 147 µM)
MIC (Bradyrhizobium japonicum; 120 hrs): 32 µg/mL (≈ 73.3 µM)
MBC (Xanthomonas citri): 32 µg/mL (≈ 73.3 µM)
MIC (Xanthomonas citri): 16 µg/mL (≈ 36.7 µM)
MBC (Mesorhizobium loti): 32 µg/mL (≈ 73.3 µM)
MIC (Mesorhizobium loti): 16 µg/mL (≈ 36.7 µM)
MBC (Sinorhizobium meliloti): 32 µg/mL (≈ 73.3 µM)
MIC (Sinorhizobium meliloti): 16 µg/mL (≈ 36.7 µM)
MBC [1]: 64 µg/mL (≈ 147 µM)
MIC [1]: 64 µg/mL (≈ 147 µM)

CC(C)[C@H](NC(=O)c1c(F)cccc1F)C(=O)Nc1ccc(-n2cnnn2)cc1 [SA1, 2,6-Difluoro-N-[(2S)-3-methyl-1-oxo-1-{[4-(1H-tetrazol-1-yl)phenyl]amino}-2-butanyl] benzamide]
MBC (Liberibacter crescens; 24 h): 16 µg/mL (≈ 40 µM)
MIC (Liberibacter crescens; 24 h): 16 µg/mL (≈ 40 µM)
MBC (Liberibacter crescens; 120 h): 32 µg/mL (≈ 79.9 µM)
MIC (Liberibacter crescens; 120 h): 32 µg/mL (≈ 79.9 µM)
MBC (Rhizobium etli; 24 hrs): 32 µg/mL (≈ 79.9 µM)
MIC (Rhizobium etli; 24 hrs): 16 µg/mL (≈ 40 µM)
MBC (Rhizobium etli; 120 hrs): 64 µg/mL (≈ 160 µM)
MIC (Rhizobium etli; 120 hrs): 32 µg/mL (≈ 79.9 µM)
MBC (Bradyrhizobium japonicum; 24 hrs): 16 µg/mL (≈ 40 µM)
MIC (Bradyrhizobium japonicum; 24 hrs): 16 µg/mL (≈ 40 µM)
MBC (Bradyrhizobium japonicum; 120 hrs): 32 µg/mL (≈ 79.9 µM)
MIC (Bradyrhizobium japonicum; 120 hrs): 32 µg/mL (≈ 79.9 µM)
MBC (Xanthomonas citri): 128 µg/mL (≈ 320 µM)
MIC (Xanthomonas citri): 64 µg/mL (≈ 160 µM)
MBC (Mesorhizobium loti): 32 µg/mL (≈ 79.9 µM)
MIC (Mesorhizobium loti): 16 µg/mL (≈ 40 µM)
MBC (Sinorhizobium meliloti): 32 µg/mL (≈ 79.9 µM)
MIC (Sinorhizobium meliloti): 16 µg/mL (≈ 40 µM)
MBC [1]: 64 µg/mL (≈ 160 µM)
MIC [1]: 32 µg/mL (≈ 79.9 µM)

CN(C)[C@@H]1C(O)=C(C(N)=O)C(=O)[C@@]2(O)C(O)=C3C(=O)c4c(O)cccc4[C@@](C)(O)[C@H]3[C@H](O)[C@@H]12 [Oxytetracycline, reference compound]
MBC (Liberibacter crescens; 120 h): 8 µg/mL (≈ 17.4 µM)
MIC (Liberibacter crescens; 120 h): 8 µg/mL (≈ 17.4 µM)
MBC (Rhizobium etli; 24 hrs): 4 µg/mL (≈ 8.69 µM)
MIC (Rhizobium etli; 24 hrs): 4 µg/mL (≈ 8.69 µM)
MBC (Rhizobium etli; 120 hrs): 4 µg/mL (≈ 8.69 µM)
MIC (Rhizobium etli; 120 hrs): 4 µg/mL (≈ 8.69 µM)
MBC (Bradyrhizobium japonicum; 24 hrs): 4 µg/mL (≈ 8.69 µM)
MIC (Bradyrhizobium japonicum; 24 hrs): 4 µg/mL (≈ 8.69 µM)
MBC (Bradyrhizobium japonicum; 120 hrs): 4 µg/mL (≈ 8.69 µM)
MIC (Bradyrhizobium japonicum; 120 hrs): 4 µg/mL (≈ 8.69 µM)
mean Ct value (CLAS populations) (CLAS populations; 2 days after treatment): 26.10 b
mean Ct value (CLAS populations) (CLAS populations; 4 days after treatment): 25.61 b
mean Ct value (CLAS populations) (CLAS populations; Before treatment): 25.36 a

COc1ccc(NC(=O)C2(N(C(=O)c3ccc(-n4cnnn4)cc3)c3ccc(OC)cc3)CCCCC2)cc1 [SSC8, N-(4-methoxy-phenyl)-N-{1-[(4-methoxy-phenyl)carbamoyl]cyclohexyl}-4-(1H-tetrazol-1-yl)benzamide]
MBC (Liberibacter crescens; 24 h): 16 µg/mL (≈ 30.4 µM)
MIC (Liberibacter crescens; 24 h): 16 µg/mL (≈ 30.4 µM)
MBC (Liberibacter crescens; 120 h): 32 µg/mL (≈ 60.8 µM)
MIC (Liberibacter crescens; 120 h): 32 µg/mL (≈ 60.8 µM)
MBC (Rhizobium etli; 24 hrs): 32 µg/mL (≈ 60.8 µM)
MIC (Rhizobium etli; 24 hrs): 16 µg/mL (≈ 30.4 µM)
MBC (Rhizobium etli; 120 hrs): 64 µg/mL (≈ 122 µM)
MIC (Rhizobium etli; 120 hrs): 32 µg/mL (≈ 60.8 µM)
MBC (Bradyrhizobium japonicum; 24 hrs): 16 µg/mL (≈ 30.4 µM)
MIC (Bradyrhizobium japonicum; 24 hrs): 8 µg/mL (≈ 15.2 µM)
MBC (Bradyrhizobium japonicum; 120 hrs): 32 µg/mL (≈ 60.8 µM)
MIC (Bradyrhizobium japonicum; 120 hrs): 16 µg/mL (≈ 30.4 µM)
MBC (Xanthomonas citri): 64 µg/mL (≈ 122 µM)
MIC (Xanthomonas citri): 32 µg/mL (≈ 60.8 µM)
MBC (Mesorhizobium loti): 32 µg/mL (≈ 60.8 µM)
MIC (Mesorhizobium loti): 16 µg/mL (≈ 30.4 µM)
MBC (Sinorhizobium meliloti): 32 µg/mL (≈ 60.8 µM)
MIC (Sinorhizobium meliloti): 16 µg/mL (≈ 30.4 µM)
MBC [1]: 64 µg/mL (≈ 122 µM)
MIC [1]: 32 µg/mL (≈ 60.8 µM)
